Where two headings read alike, the source gives them in different places.
Key:
F1F0-ATPase = target: T1, F1F0-ATPase (Bos taurus, UniProt P13621); assay: Inhibition of F1F0-ATPase activity in synthesizing ATP; type: biochemical; settings: inhibition of ATP synthesis by F1F0-ATPase; read-out: ATP Syn IC50
T1 construct: from tissue

Ramos cells = assay: Cytotoxicity in Ramos cells; type: cell-based; settings: cytotoxicity in Ramos cells, read-out: Ramos Cell EC50

| Structure (SMILES) | IC50 (F1F0-ATPase) [µM] | EC50 (Ramos cells) [µM] | EC50 (Ramos cells; Homo sapiens) [µM] |
| --- | --- | --- | --- |
| CC(C)CN/C(=N/C(=O)c1cccc([S+](C)[O-])c1)Nc1cc(-c2ccc(F)cc2)n[nH]1 (stereo not shown) [Compound A-576] | < 10 | < 10 | – |
| O=C(N=C(Nc1cc(C(F)(F)F)n[nH]1)NC1CCCC1)c1ccc(F)cc1 [Compound A-548] | < 10 | – | < 10 |
| O=C(/N=C(\Nc1cc(-c2ccc(F)cc2)n[nH]1)NC1COC1)c1ccc(F)c(F)c1 [Compound A-199] | < 10 | > 10 | – |
| CC(C)(C)N/C(=N/C(=O)c1ccc(S(N)(=O)=O)cc1)Nc1cc(-c2ccc(F)cc2)n[nH]1 [Compound A-375] | < 10 | < 10 | – |
| Cc1ccc(-c2cc(N/C(=N\C(=O)c3ccc(F)c(F)c3)NC(C)C)[nH]n2)cc1F [Compound A-319] | < 10 | < 10 | – |
| CC(C)(C)N/C(=N/C(=O)c1ccc(S(C)(=O)=O)cc1)Nc1cc(-c2ccc(F)cc2)n[nH]1 [Compound A-498] | < 10 | < 10 | – |
| O=C(N=C(Nc1cc(-c2ccc(F)cc2)n[nH]1)NC1CCCC1)c1ccc(F)cc1 [Compound A-521] | < 10 | – | < 10 |
| CC(C)(C)N/C(=N/C(=O)c1cccc(C#N)c1)Nc1cc(-c2cc(F)cc(F)c2)n[nH]1 [Compound A-315] | < 10 | > 10 | – |
| CC1(N/C(=N/C(=O)c2ccc(Cl)cc2)Nc2cc(C(C)(C)C)[nH]n2)CCC1 [Compound A-17] | < 10 | – | < 10 |
| O=C(N=C(Nc1cc(-c2cc(F)cc(F)c2)n[nH]1)NC1CCCC1)c1cccc(F)c1 [Compound A-369] | < 10 | – | < 10 |
| CC(C)(C)N/C(=N/C(=O)c1ccc(F)cc1F)Nc1cc(-c2ccc(F)cc2)n[nH]1 [Compound A-489] | < 10 | < 10 | – |
| Cc1cc(N/C(=N\C(=O)c2ccc(C(F)(F)F)cc2)NC2CCCC2)n[nH]1 [Compound A-185] | < 10 | < 10 | – |
| O=C(/N=C(/Nc1cc(C(F)(F)F)n[nH]1)NC1CCS(=O)(=O)C1)c1ccc(Cl)c(F)c1 (stereo not shown) [Compound A-121] | < 10 | – | > 10 |
| CCOC(C)CN/C(=N/C(=O)c1ccc(Cl)c(F)c1)Nc1cc(-c2ccc(F)cc2)n[nH]1 (stereo not shown) [Compound A-213] | < 10 | < 10 | – |
| CC1(N/C(=N/C(=O)c2ccc(Cl)c(F)c2)Nc2cc(-c3cc(F)cc(F)c3)n[nH]2)CC1 [Compound A-358] | – | < 10 | – |
| CC(C)(C)c1n[nH]c(NC(=NC(=O)c2ccc(C(F)(F)F)cc2)NCc2ccc(F)cc2Cl)c1F [Compound A-335] | < 10 | – | < 10 |
| CC(C)CNC(=NC(=O)c1ccc(Cl)c(F)c1)Nc1cc(-c2ccc(Cl)cc2)n[nH]1 [Compound A-381] | < 10 | – | < 10 |
| CN(/C(=N\C(=O)c1ccc(F)c(F)c1)NC(C)(C)C)c1cc(C(F)(F)F)[nH]n1 [Compound A-44] | > 10 | – | > 10 |
| O=C(/N=C(/NCc1ccc(F)c(Cl)c1)Nc1cc(C(F)F)[nH]n1)c1ccc(Cl)cc1 [Compound A-56] | < 10 | – | > 10 |
| CC(C)(C)N/C(=N/C(=O)c1ccc(F)c(F)c1)Nc1cc(C(F)(F)F)n[nH]1 [Compound A-12] | < 10 | – | < 10 |
| CCC(C)N/C(=N/C(=O)c1ccc(Cl)cc1)Nc1cc(-c2cc(F)cc(F)c2)n[nH]1 (stereo not shown) [Compound A-234] | < 10 | < 10 | – |

| Structure (SMILES) | IC50 (F1F0-ATPase) [µM] | EC50 (Ramos cells) [µM] | EC50 (Ramos cells; Homo sapiens) [µM] |
| --- | --- | --- | --- |
| O=C(/N=C(/Nc1cc(F)cc(Cl)c1)Nc1cc(-c2ccc(F)cc2)[nH]n1)c1ccc(Cl)c(F)c1 [Compound A-145] | < 10 | < 10 | – |
| CC(C)(C)NC(=NC(=O)c1ccc(Cl)cc1)Nc1cc(-c2cccc(Cl)c2)[nH]n1 [Compound A-131] | < 10 | – | < 10 |
| O=C(/N=C(/NCc1ccccc1C(F)(F)F)Nc1cc(C(F)(F)F)n[nH]1)c1ccc(F)c(F)c1 [Compound A-8] | < 10 | – | < 10 |
| O=C(/N=C(\Nc1cc(C(F)(F)F)[nH]n1)NC1CCCC1)c1cccc(C(F)(F)F)c1 [Compound A-75] | < 10 | – | < 10 |
| CC(C)(C)N/C(=N/C(=O)c1ccc(C(F)(F)F)nc1)Nc1cc(C(F)(F)F)[nH]n1 [Compound A-79] | < 10 | – | < 10 |
| COCC(C)NC(=NC(=O)c1ccc(C#N)cc1)Nc1cc(-c2ccc(F)cc2)n[nH]1 (stereo not shown) [Compound A-528] | < 10 | – | > 10 |
| CC(C)(C)N/C(=N/C(=O)c1ccc(F)c(F)c1)Nc1cc(C(F)F)[nH]n1 [Compound A-62] | < 10 | – | < 10 |
| Cc1ccc(-c2cc(N/C(=N\C(=O)c3ccc(C(F)(F)F)cc3)NC(C)C)[nH]n2)cc1F [Compound A-328] | < 10 | < 10 | – |
| CC1(CNC(=NC(=O)c2ccc(F)c(F)c2)Nc2cc(-c3ccc(Cl)cc3)n[nH]2)CCCO1 (stereo not shown) [Compound A-211] | < 10 | – | > 10 |
| COc1cccc(C(=O)/N=C(/NCC(C)C)Nc2cc(-c3ccc(F)cc3)[nH]n2)c1 [Compound A-171] | < 10 | < 10 | – |
| O=C(/N=C(/NCc1ccc(F)cc1Cl)Nc1cc(-c2ccc(F)cc2)n[nH]1)c1ccc(C(F)(F)F)cc1 [Compound A-443] | < 10 | < 10 | – |
| Cc1ccc(C(=O)/N=C(\Nc2cc(C(F)(F)F)[nH]n2)NC2CCCC2)cc1F [Compound A-546] | < 10 | < 10 | – |
| O=C(N=C(Nc1cc(F)cc(Cl)c1)Nc1cc(-c2cccc(Cl)c2)[nH]n1)c1ccc(F)c(F)c1 [Compound A-442] | < 10 | – | < 10 |
| O=C(/N=C(\Nc1cc(C(F)(F)F)n[nH]1)NC1CCOCC1)c1ccc(F)c(F)c1 [Compound A-104] | < 10 | – | > 10 |
| O=C(N=C(Nc1cc(-c2ccc(Cl)cc2)n[nH]1)NC1CCC1)c1ccc(Cl)c(F)c1 [Compound A-226] | < 10 | – | < 10 |
| O=C(/N=C(/Nc1cc(F)cc(Cl)c1)Nc1cc(C(F)F)[nH]n1)c1ccc(Cl)cc1 [Compound A-57] | < 10 | – | < 10 |
| CCC(C)N/C(=N/C(=O)c1ccc(F)cc1)Nc1cc(-c2ccc(C)c(F)c2)n[nH]1 (stereo not shown) [Compound A-203] | < 10 | – | < 10 |
| COC[C@H](C)N/C(=N/C(=O)c1ccc(C)cc1)Nc1cc(C(F)(F)F)[nH]n1 [Compound A-534] | < 10 | < 10 | – |
| O=C(/N=C(/Nc1cc(F)cc(Cl)c1)Nc1cc(C2CC2)[nH]n1)c1ccc(Cl)c(F)c1 [Compound A-146] | < 10 | < 10 | – |
| CCOC[C@H](C)NC(=NC(=O)c1ccc(F)cc1)Nc1cc(-c2cc(F)cc(F)c2)n[nH]1 [Compound A-242] | < 10 | – | < 10 |
| CC1(NC(=NC(=O)c2ccc(F)c(F)c2)Nc2cc(-c3cc(F)cc(Cl)c3)n[nH]2)CCCC1 [Compound A-288] | < 10 | – | < 10 |

| Structure (SMILES) | IC50 (F1F0-ATPase) [µM] | EC50 (Ramos cells) [µM] | EC50 (Ramos cells; Homo sapiens) [µM] |
| --- | --- | --- | --- |
| CC(C)CN/C(=N/C(=O)c1ccc(F)c(F)c1)Nc1cc(-c2ccc(CO)cc2)n[nH]1 [Compound A-570, (Z)-3,4-Difluoro-N-(((3-(4-(hydroxymethyl)phenyl)-1H-pyrazol-5-yl)amino)(isobutylamino)methylene)benzamide] | > 10 | – | > 10 |
| O=C(N=C(Nc1cc(-c2ccc(F)cc2)n[nH]1)NC1CCCC1)c1ccc(Cl)c(F)c1 [Compound A-221] | < 10 | – | < 10 |
| O=C(/N=C(\Nc1cc(C(F)(F)F)n[nH]1)NC1CCCOC1)c1ccc(C(F)(F)F)cc1 (stereo not shown) [Compound A-96] | < 10 | – | < 10 |
| Cc1cc(N/C(=N\C(=O)c2ccc(F)c(F)c2)NC(C)(C)C)n[nH]1 [Compound A-192] | < 10 | < 10 | – |
| COc1ccc(C(=O)/N=C(/NCC(C)C)Nc2cc(-c3ccc(F)cc3)[nH]n2)cn1 [Compound A-182] | < 10 | < 10 | – |
| CCc1cc(C(=O)/N=C(\Nc2cc(-c3ccc(F)cc3)n[nH]2)NC(C)CC)ccn1 (stereo not shown) [Compound A-174] | < 10 | – | < 10 |
| CC(C)N/C(=N/C(=O)c1cccc(F)c1)Nc1cc(-c2ccc(Cl)cc2)n[nH]1 [Compound A-386] | < 10 | < 10 | – |
| COc1cccc(CN/C(=N/C(=O)c2cc(F)c(F)c(F)c2)Nc2cc(-c3ccc(F)cc3)[nH]n2)c1 [Compound A-396] | < 10 | < 10 | – |
| CCc1ccc(-c2cc(N/C(=N\C(=O)c3ccc(F)c(F)c3)NC(C)(C)C)[nH]n2)cc1 [Compound A-431] | < 10 | < 10 | – |
| COCC(C)NC(=NC(=O)c1ccc(C(F)(F)F)cc1)Nc1cc(-c2ccc(Cl)cc2)n[nH]1 (stereo not shown) [Compound A-238] | < 10 | – | < 10 |
| COCC(C)(C)NC(=NC(=O)c1cccc(C#N)c1)Nc1cc(-c2ccc(F)cc2)n[nH]1 [Compound A-504] | < 10 | – | – |
| CC(C)(N/C(=N/C(=O)c1ccc(Cl)c(F)c1)Nc1cc(-c2cc(F)cc(F)c2)n[nH]1)C(F)(F)F [Compound A-357] | – | > 10 | – |
| CCC(C)N/C(=N/C(=O)c1ccc(Cl)c(F)c1)Nc1cc(-c2cc(F)cc(F)c2)n[nH]1 (stereo not shown) [Compound A-356] | – | < 10 | – |
| COCCOCC(C)(C)N/C(=N/C(=O)c1ccc(F)cc1)Nc1cc(-c2ccc(F)cc2)n[nH]1 [Compound A-507] | – | < 10 | – |
| CC(C)(C)N/C(=N/C(=O)c1ccc(Cl)c(F)c1)Nc1cc(-c2cc(F)cc(F)c2)n[nH]1 [Compound A-354] | – | < 10 | – |
| O=C(/N=C(/NCc1cc(F)c(F)c(F)c1)Nc1cc(C(F)(F)F)[nH]n1)c1ccc(F)c(F)c1 [Compound A-39] | < 10 | – | – |
| CC1(N/C(=N/C(=O)c2ccc(Cl)c(F)c2)Nc2cc(-c3cc(F)cc(F)c3)n[nH]2)CCCC1 [Compound A-355] | – | > 10 | – |
| COC(=O)c1cc(N/C(=N\C(=O)c2ccc(C(F)(F)F)cc2)NC(C)(C)C)[nH]n1 [Compound A-339] | – | > 10 | – |
| CC(C)CN/C(=N/C(=O)c1cccc(C#N)c1)Nc1cc(-c2ccc(F)cc2)n[nH]1 [Compound A-508] | – | < 10 | – |

Source: US9139532B2, “Pyrazolyl guanidine F1F0-atpase inhibitors and therapeutic uses thereof” (Lycera Corporation, priority 2010, dated 2015)
